{"source": "PubChem BioAssay AID2060350", "about": "(Molecular Pharmacology Branch, DTP, NCI, 2025);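 also: spheroids exposed to drugs for 7 days before readout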;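 as to viability, T/C: 100% = DMSO vehicle control viability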", "test_system": "PDC 521955-158-R6-J3 spheroids, viability", "assay": "Anticancer human tumor 521955-158-R6-J3-PDC patient-derived pancreatic carcinoma cell line growth inhibition [TAK]", "conditions": "spheroids with HUVEC and MSC; for IC50: curve of first compound; for viability, T/C: stronger effect = lower value", "source_text": "Combinatorial screen of targeted agents with TAK-243 and ipatasertib in multi-cell type tumor spheroids\nA high-throughput screen of multi-cell type tumor spheroids was designed to identify active combinations of targeted small molecules and TAK-243 or ipatasertib. Complex spheroids include a stromal component modeled by human endothelial cells (HUVEC) and fibroblasts modeled by human mesenchymal stem cells (MSCs). The concentration ranges selected for each drug and investigational agent were based upon clinically achievable concentrations if the clinical Cmax of the agent was known.\nCompounds. The drugs and investigational agents: TAK-243 (785004), ipatasertib (767898), everolimus (733504), selumetinib (741078), bortezomib (756655), trametinib (758246), ixazomib (758254), vemurafenib (761431), dabrafenib (764134), sapanisertib (764658), alpelisib (765974), and copanlisib (816437), were obtained from the National Cancer Institute (NCI) Developmental Therapeutics Program Chemical Repository. The FDA-approved anticancer drug set is available from the NCI Developmental Therapeutics Program. […] The stock solutions were prepared in dimethyl sulfoxide (DMSO, Sigma-Aldrich, St. Louis, MO, cat. D2650) at 800-fold the tested concentration and stored at -70 degrees C prior to their use. All drugs and investigational agents were tested over a range starting from a high concentration at or near the clinical Cmax and decreasing in half-log increments. If the clinical Cmax for an agent had not been determined, the highest concentration tested was 10 microM.\nNCI60 Cell Culture. NCI60 cell lines were obtained from the NCI Developmental Therapeutics Program Tumor Repository. For each lot of cells, the Repository performed Applied Biosystems AmpFLSTR Identifiler testing with PCR amplification to confirm consistency with the published Identifier STR profile for each cell line. Cells were kept in continuous culture for no more than 20 passages. The optimal seeding densities for each of the cell lines at each time point assessed were determined prior to performing the concentration response studies. Briefly, the NCI60 human tumor lines were grown as monolayers in RPMI 1640 medium supplemented with 10% FBS and 2 mmol/L L-glutamine.\nAn additional 2 lines were from the NCI60 cell line panel including melanomas, MALME-3M and SK-MEL-2. Pooled donor human umbilical vein endothelial cells (HUVEC, Lonza, cat. CC-2519) and human mesenchymal stem cells (hMSC, Lonza, cat. PT-2501) were purchased from Lonza (Walkersville, MD).\nPDMR cell lines were grown in complete medium (DC medium): Dulbecco's modified Eagle's medium (DMEM)/F12 supplemented with 5% fetal bovine serum (FBS), 2 mM L-glutamine, 100 U/mL penicillin and 100 µg/ml streptomycin, 0.4 µg/ml hydrocortisone, 10 ng/ml epidermal growth factor (EGF) recombinant human protein, 24 µg/mL adenine, and 0.1 mg/mL primocin. During culture from frozen stock vials, PDMR cells were cultured in the same medium containing 10 µM Y-27632 (see Table 3). The PDCs were cultured in complete DMEM/F12 media without 10 microM Y-27632 dihydrochloride for at least two passages prior to the screen. The pooled donor HUVEC and hMSC were cultured in endothelial cell growth medium 2 (PromoCell, Heidelberg, Germany, cat. C-22011) and mesenchymal stem cell growth medium 2 (PromoCell, cat. C-28009), respectively. For all experiments, HUVEC and hMSC were used at passages </=5.\nFor the pre-screen, cell seeding densities were determined from a titration spanning the range from 5,000 to 313 cells per well. The mct-spheroids including 60% malignant cells, 25% HUVEC and 15% MSC dispensed as a mixture into U-bottom Ultra-Low Attachment 384-well plates (Corning, NY)\nHigh-throughput Drug Combination Screening.\nPrior to their inoculation into 384-well plates, malignant cells, HUVEC, and hMSC were removed from T flasks using TrypLE express (Thermo Fisher Scientific, cat. 12605036) and harvested by centrifugation for 5 min at 233 x g. […]", "data": [{"smiles": "COC1CC2CCC(C)C(O)(O2)C(=O)C(=O)N2CCCCC2C(=O)OC(C(C)CC2CCC(OCCO)C(OC)C2)CC(=O)C(C)C=C(C)C(O)C(OC)C(=O)C(C)CC(C)C=CC=CC=C1C", "note": "(stereo not given) + CC(C)NCC(C(=O)N1CCN(c2ncnc3c2C(C)CC3O)CC1)c1ccc(Cl)cc1", "values": [{"measurement": "IC50", "setting": "second compound 0.3 µM", "result": "> 100", "unit": "nM"}, {"measurement": "IC50", "setting": "second compound 0.949 µM", "result": "> 100", "unit": "nM"}, {"measurement": "IC50", "setting": "second compound 3 µM", "result": "> 100", "unit": "nM"}, {"measurement": "IC50", "setting": "second compound 9.49 µM", "result": "> 100", "unit": "nM"}, {"measurement": "IC50", "setting": "second compound 30 µM", "result": "> 100", "unit": "nM"}, {"measurement": "viability, T/C", "setting": "second compound 0.3 µM, first compound 0.000316 µM", "result": 98.5, "unit": "%"}, {"measurement": "viability, T/C", "setting": "second compound 0.3 µM, first compound 0.001 µM", "result": 93, "unit": "%"}, {"measurement": "viability, T/C", "setting": "second compound 0.3 µM, first compound 0.00316 µM", "result": 97, "unit": "%"}, {"measurement": "viability, T/C", "setting": "second compound 0.3 µM, first compound 0.01 µM", "result": 96.4, "unit": "%"}, {"measurement": "viability, T/C", "setting": "second compound 0.3 µM, first compound 0.0316 µM", "result": 102, "unit": "%"}, {"measurement": "viability, T/C", "setting": "second compound 0.3 µM, first compound 0.1 µM", "result": 81.1, "unit": "%"}, {"measurement": "viability, T/C", "setting": "second compound 0.949 µM, first compound 0.000316 µM", "result": 95.8, "unit": "%"}, {"measurement": "viability, T/C", "setting": "second compound 0.949 µM, first compound 0.001 µM", "result": 89.6, "unit": "%"}, {"measurement": "viability, T/C", "setting": "second compound 0.949 µM, first compound 0.00316 µM", "result": 99.1, "unit": "%"}, {"measurement": "viability, T/C", "setting": "second compound 0.949 µM, first compound 0.01 µM", "result": 102, "unit": "%"}, {"measurement": "viability, T/C", "setting": "second compound 0.949 µM, first compound 0.0316 µM", "result": 91.3, "unit": "%"}, {"measurement": "viability, T/C", "setting": "second compound 0.949 µM, first compound 0.1 µM", "result": 78, "unit": "%"}, {"measurement": "viability, T/C", "setting": "second compound 3 µM, first compound 0.000316 µM", "result": 96.5, "unit": "%"}, {"measurement": "viability, T/C", "setting": "second compound 3 µM, first compound 0.001 µM", "result": 78.3, "unit": "%"}, {"measurement": "viability, T/C", "setting": "second compound 3 µM, first compound 0.00316 µM", "result": 85.8, "unit": "%"}, {"measurement": "viability, T/C", "setting": "second compound 3 µM, first compound 0.01 µM", "result": 89.1, "unit": "%"}, {"measurement": "viability, T/C", "setting": "second compound 3 µM, first compound 0.0316 µM", "result": 73.7, "unit": "%"}, {"measurement": "viability, T/C", "setting": "second compound 3 µM, first compound 0.1 µM", "result": 63.3, "unit": "%"}, {"measurement": "viability, T/C", "setting": "second compound 9.49 µM, first compound 0.000316 µM", "result": 86.2, "unit": "%"}, {"measurement": "viability, T/C", "setting": "second compound 9.49 µM, first compound 0.001 µM", "result": 67.7, "unit": "%"}, {"measurement": "viability, T/C", "setting": "second compound 9.49 µM, first compound 0.00316 µM", "result": 65, "unit": "%"}, {"measurement": "viability, T/C", "setting": "second compound 9.49 µM, first compound 0.01 µM", "result": 74.8, "unit": "%"}, {"measurement": "viability, T/C", "setting": "second compound 9.49 µM, first compound 0.0316 µM", "result": 76.8, "unit": "%"}, {"measurement": "viability, T/C", "setting": "second compound 9.49 µM, first compound 0.1 µM", "result": 58.4, "unit": "%"}, {"measurement": "viability, T/C", "setting": "second compound 30 µM, first compound 0.000316 µM", "result": 81.8, "unit": "%"}, {"measurement": "viability, T/C", "setting": "second compound 30 µM, first compound 0.001 µM", "result": 59.6, "unit": "%"}, {"measurement": "viability, T/C", "setting": "second compound 30 µM, first compound 0.00316 µM", "result": 55.9, "unit": "%"}, {"measurement": "viability, T/C", "setting": "second compound 30 µM, first compound 0.01 µM", "result": 62.8, "unit": "%"}, {"measurement": "viability, T/C", "setting": "second compound 30 µM, first compound 0.0316 µM", "result": 56, "unit": "%"}, {"measurement": "viability, T/C", "setting": "second compound 30 µM, first compound 0.1 µM", "result": 48.4, "unit": "%"}]}, {"smiles": "Cn1cnc2c(F)c(Nc3ccc(Br)cc3Cl)c(C(=O)NOCCO)cc21", "note": "+ CC(C)NCC(C(=O)N1CCN(c2ncnc3c2C(C)CC3O)CC1)c1ccc(Cl)cc1", "values": [{"measurement": "IC50", "setting": "second compound 0.3 µM", "result": 326, "unit": "nM"}, {"measurement": "IC50", "setting": "second compound 0.949 µM", "result": 176, "unit": "nM"}, {"measurement": "IC50", "setting": "second compound 3 µM", "result": 324, "unit": "nM"}, {"measurement": "IC50", "setting": "second compound 9.49 µM", "result": 141, "unit": "nM"}, {"measurement": "IC50", "setting": "second compound 30 µM", "result": 186, "unit": "nM"}, {"measurement": "viability, T/C", "setting": "second compound 0.3 µM, first compound 0.00949 µM", "result": 66.8, "unit": "%"}, {"measurement": "viability, T/C", "setting": "second compound 0.3 µM, first compound 0.03 µM", "result": 60.1, "unit": "%"}, {"measurement": "viability, T/C", "setting": "second compound 0.3 µM, first compound 0.0949 µM", "result": 54.6, "unit": "%"}, {"measurement": "viability, T/C", "setting": "second compound 0.3 µM, first compound 0.3 µM", "result": 47.5, "unit": "%"}, {"measurement": "viability, T/C", "setting": "second compound 0.3 µM, first compound 0.949 µM", "result": 51.8, "unit": "%"}, {"measurement": "viability, T/C", "setting": "second compound 0.3 µM, first compound 3 µM", "result": 38.9, "unit": "%"}, {"measurement": "viability, T/C", "setting": "second compound 0.949 µM, first compound 0.00949 µM", "result": 69.6, "unit": "%"}, {"measurement": "viability, T/C", "setting": "second compound 0.949 µM, first compound 0.03 µM", "result": 58.4, "unit": "%"}, {"measurement": "viability, T/C", "setting": "second compound 0.949 µM, first compound 0.0949 µM", "result": 48.3, "unit": "%"}, {"measurement": "viability, T/C", "setting": "second compound 0.949 µM, first compound 0.3 µM", "result": 49.7, "unit": "%"}, {"measurement": "viability, T/C", "setting": "second compound 0.949 µM, first compound 0.949 µM", "result": 43.8, "unit": "%"}, {"measurement": "viability, T/C", "setting": "second compound 0.949 µM, first compound 3 µM", "result": 25.7, "unit": "%"}, {"measurement": "viability, T/C", "setting": "second compound 3 µM, first compound 0.00949 µM", "result": 68.2, "unit": "%"}, {"measurement": "viability, T/C", "setting": "second compound 3 µM, first compound 0.03 µM", "result": 60.9, "unit": "%"}, {"measurement": "viability, T/C", "setting": "second compound 3 µM, first compound 0.0949 µM", "result": 52.4, "unit": "%"}, {"measurement": "viability, T/C", "setting": "second compound 3 µM, first compound 0.3 µM", "result": 51.8, "unit": "%"}, {"measurement": "viability, T/C", "setting": "second compound 3 µM, first compound 0.949 µM", "result": 43, "unit": "%"}, {"measurement": "viability, T/C", "setting": "second compound 3 µM, first compound 3 µM", "result": 21.6, "unit": "%"}, {"measurement": "viability, T/C", "setting": "second compound 9.49 µM, first compound 0.00949 µM", "result": 66.8, "unit": "%"}, {"measurement": "viability, T/C", "setting": "second compound 9.49 µM, first compound 0.03 µM", "result": 55.7, "unit": "%"}, {"measurement": "viability, T/C", "setting": "second compound 9.49 µM, first compound 0.0949 µM", "result": 47.8, "unit": "%"}, {"measurement": "viability, T/C", "setting": "second compound 9.49 µM, first compound 0.3 µM", "result": 49.5, "unit": "%"}, {"measurement": "viability, T/C", "setting": "second compound 9.49 µM, first compound 0.949 µM", "result": 33.9, "unit": "%"}, {"measurement": "viability, T/C", "setting": "second compound 9.49 µM, first compound 3 µM", "result": 15.8, "unit": "%"}, {"measurement": "viability, T/C", "setting": "second compound 30 µM, first compound 0.00949 µM", "result": 64.3, "unit": "%"}, {"measurement": "viability, T/C", "setting": "second compound 30 µM, first compound 0.03 µM", "result": 56.7, "unit": "%"}, {"measurement": "viability, T/C", "setting": "second compound 30 µM, first compound 0.0949 µM", "result": 49.6, "unit": "%"}, {"measurement": "viability, T/C", "setting": "second compound 30 µM, first compound 0.3 µM", "result": 50.1, "unit": "%"}, {"measurement": "viability, T/C", "setting": "second compound 30 µM, first compound 0.949 µM", "result": 35.8, "unit": "%"}, {"measurement": "viability, T/C", "setting": "second compound 30 µM, first compound 3 µM", "result": 15.1, "unit": "%"}]}]}
